Columns and labels:
[1] = target: Beta-2 adrenergic receptor (Homo sapiens) (UniProt P07550); assay: Inhibitory activity against adrenergic beta 2 receptor by radioligand binding assay at 10 uM
[2] = target: T1, C-X-C chemokine receptor type 1 (Homo sapiens) (UniProt P25024); assay: Inhibitory activity against CXCR1(IL-8A) receptor by radioligand binding assay at 10 uM
T1 sequence (whole entry): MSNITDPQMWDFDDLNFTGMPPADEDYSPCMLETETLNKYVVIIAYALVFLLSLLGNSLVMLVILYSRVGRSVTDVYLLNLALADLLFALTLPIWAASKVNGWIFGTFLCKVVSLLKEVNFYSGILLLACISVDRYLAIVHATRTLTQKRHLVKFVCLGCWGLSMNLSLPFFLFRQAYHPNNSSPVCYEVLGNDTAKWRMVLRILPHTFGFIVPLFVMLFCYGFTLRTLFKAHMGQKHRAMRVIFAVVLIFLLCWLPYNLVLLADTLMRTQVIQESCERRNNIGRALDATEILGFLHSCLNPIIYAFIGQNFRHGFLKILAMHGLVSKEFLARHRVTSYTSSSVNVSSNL

[3] = target: T2, D(4) dopamine receptor (Homo sapiens) (UniProt P21917); assay: Inhibitory activity against D4.2 receptor by radioligand binding assay at 10 uM
T2 sequence (whole entry): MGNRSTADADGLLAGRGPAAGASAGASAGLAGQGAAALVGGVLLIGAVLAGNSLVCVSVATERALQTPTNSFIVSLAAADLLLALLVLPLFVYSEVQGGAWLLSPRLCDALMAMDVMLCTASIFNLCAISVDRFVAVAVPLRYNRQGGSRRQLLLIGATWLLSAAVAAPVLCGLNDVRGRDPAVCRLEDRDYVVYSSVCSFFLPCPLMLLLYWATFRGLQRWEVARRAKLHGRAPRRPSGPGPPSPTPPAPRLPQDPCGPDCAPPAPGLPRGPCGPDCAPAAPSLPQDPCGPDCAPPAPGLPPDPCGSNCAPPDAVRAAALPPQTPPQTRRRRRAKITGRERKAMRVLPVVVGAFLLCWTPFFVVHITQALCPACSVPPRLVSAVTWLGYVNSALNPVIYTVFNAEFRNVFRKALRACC

[4] = target: T3, Muscarinic acetylcholine receptor M2 (Homo sapiens) (UniProt P08172); assay: Inhibitory activity against M2 receptor by radioligand binding assay at 10 uM
T3 sequence (whole entry): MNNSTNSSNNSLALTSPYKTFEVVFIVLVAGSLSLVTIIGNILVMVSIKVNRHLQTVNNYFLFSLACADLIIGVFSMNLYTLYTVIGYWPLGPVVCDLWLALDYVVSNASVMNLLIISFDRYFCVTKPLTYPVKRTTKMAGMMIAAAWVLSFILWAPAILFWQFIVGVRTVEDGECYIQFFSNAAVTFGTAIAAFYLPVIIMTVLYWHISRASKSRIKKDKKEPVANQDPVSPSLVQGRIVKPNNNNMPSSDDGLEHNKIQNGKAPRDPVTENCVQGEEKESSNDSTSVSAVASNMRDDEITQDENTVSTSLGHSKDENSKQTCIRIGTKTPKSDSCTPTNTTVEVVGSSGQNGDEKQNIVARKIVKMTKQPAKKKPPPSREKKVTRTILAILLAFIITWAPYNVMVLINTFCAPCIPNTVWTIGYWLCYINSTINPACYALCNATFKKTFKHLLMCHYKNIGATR

[5] = target: D(3) dopamine receptor (Homo sapiens) (UniProt P35462); assay: Inhibitory activity against D3 receptor by radioligand binding assay at 10 uM
D(3) dopamine receptor (Homo sapiens), sequence (P35462 whole entry): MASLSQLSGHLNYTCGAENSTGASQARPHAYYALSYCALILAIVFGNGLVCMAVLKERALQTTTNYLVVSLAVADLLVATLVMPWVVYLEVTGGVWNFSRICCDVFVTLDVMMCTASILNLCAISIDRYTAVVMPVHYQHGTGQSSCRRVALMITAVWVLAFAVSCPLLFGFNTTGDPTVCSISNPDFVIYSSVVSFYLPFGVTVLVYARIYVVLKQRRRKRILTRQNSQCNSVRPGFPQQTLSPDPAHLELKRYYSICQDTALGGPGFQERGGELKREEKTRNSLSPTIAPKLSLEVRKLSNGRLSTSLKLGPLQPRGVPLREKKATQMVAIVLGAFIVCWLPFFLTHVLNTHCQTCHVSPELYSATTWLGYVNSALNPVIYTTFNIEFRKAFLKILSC

[6] = target: T4, Alpha-2B adrenergic receptor (Homo sapiens) (UniProt P18089); assay: Inhibitory activity against adrenergic alpha 2B receptor by radioligand binding assay at 10 uM
T4 sequence (whole entry): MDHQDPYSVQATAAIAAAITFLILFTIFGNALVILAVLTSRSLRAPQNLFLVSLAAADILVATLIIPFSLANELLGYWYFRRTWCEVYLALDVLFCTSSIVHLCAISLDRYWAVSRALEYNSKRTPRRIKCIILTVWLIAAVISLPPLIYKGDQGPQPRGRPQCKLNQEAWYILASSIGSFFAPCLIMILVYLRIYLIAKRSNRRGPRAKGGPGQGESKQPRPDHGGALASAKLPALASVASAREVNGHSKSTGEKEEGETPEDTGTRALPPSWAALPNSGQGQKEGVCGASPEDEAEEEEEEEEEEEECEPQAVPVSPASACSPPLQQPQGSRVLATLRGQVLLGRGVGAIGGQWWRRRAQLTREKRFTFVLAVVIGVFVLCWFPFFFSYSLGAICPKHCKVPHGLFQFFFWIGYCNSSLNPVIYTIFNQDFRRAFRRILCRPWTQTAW

Beta-2 adrenergic receptor (Homo sapiens), sequence (P07550 whole entry, looked up): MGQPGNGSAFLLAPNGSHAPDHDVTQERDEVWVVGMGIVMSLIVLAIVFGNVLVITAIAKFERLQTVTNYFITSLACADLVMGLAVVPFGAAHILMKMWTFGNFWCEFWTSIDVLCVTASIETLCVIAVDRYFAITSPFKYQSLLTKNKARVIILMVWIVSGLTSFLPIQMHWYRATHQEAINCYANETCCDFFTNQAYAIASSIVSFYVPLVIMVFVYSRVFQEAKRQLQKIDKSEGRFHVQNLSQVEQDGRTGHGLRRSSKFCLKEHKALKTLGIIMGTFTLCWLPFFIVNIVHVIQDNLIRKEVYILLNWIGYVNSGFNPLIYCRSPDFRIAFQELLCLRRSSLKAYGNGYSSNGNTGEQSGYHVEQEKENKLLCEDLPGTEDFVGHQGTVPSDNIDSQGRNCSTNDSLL

inhibition [1]: < 50% | inhibition [2]: < 50% | inhibition [3]: < 50% | inhibition [4]: < 50% | inhibition [5]: < 50% | inhibition [6]: < 50%
Structure (SMILES): CCNC(=O)N1CCCN(c2ccc(C(=O)NCCc3ccc(Cl)cc3Cl)cc2NC(=O)c2cccc(Cl)c2)CC1
